In patent publication US11566017B2, “Dihydroquinazolinone compound or pharmacologically acceptable salt, and cell growth inhibitor” (RIKEN, priority 2017, dated 2023) one finds IC50 and GI50 data, which are given here for 12 compounds.

One assay addresses T1, tankyrase 1 (TNKS1) (Homo sapiens, UniProt O95271).
T1 construct: tankyrase 1 (1,024-1,327aa, SAM+PARP); made in house; host or cells: cell-free protein expression system
Description: Tankyrase inhibitory activity test (ELISA, auto-poly(ADP-ribosyl)ation), tankyrase 1. The format is biochemical. As to conditions: Flag tagged tankyrase 1 (1,024-1,327aa, SAM+PARP); read-out: TNKS1 (inhibitory activity against tankyrase 1, IC50). Here is the method:
(§1) The enzymatic activity of tankyrase 1 and the enzymatic activity of tankyrase 2 were measured by the ELISA method based on assessment of auto-poly(ADP-ribosyl)ation to evaluate the tankyrase inhibitory activity of the compound prepared in each of Examples (test compound) (inhibitory activity against tankyrase 1 (TNKS1) and inhibitory activity against tankyrase 2 (TNKS2)). First, Flag tagged tankyrase 1 (1,024-1,327aa, SAM+PARP) and tankyrase 2 (613-1,116aa, ANK5+SAM+PARP) were synthesized with a cell-free protein expression system, and diluted with a Tris buffer solution (50 mM Tris-HCl (pH 8.0), 150 mM NaCl, 10% glycerol). 50 μL of the diluted tankyrase 1 or tankyrase 2 was added to a plate with an anti-FLAG M2 monoclonal antibody immobilized thereon (Anti-FLAG High-Sensitivity M2-Coated Plate) (Sigma-Aldrich), and the plate was left standing overnight at 4° C. Thereafter, the plate was washed four times with a PBS (PBST) buffer containing 0.1% Triton X-100. For Example 84, the Anti-FLAG High-Sensitivity M2-Coated Plate was replaced by an immunoplate (Thermo Fisher Scientific), tankyrase 1 or tankyrase 2 was immobilized on the immunoplate, and the immunoplate was then blocked with Blocking One (nacalai tesque), then washed with a PBS (PBST) buffer, and used as the following plate.
(§2) Subsequently, the test compound diluted with an assay buffer (50 mM Tris-HCl (pH 8.0), 4 mM MgCl2, 0.2 mM DTT) (DMSO was used as a control) was added to each well of the plate, and the plate was left standing at room temperature for 10 minutes. Thereafter, a biotin-labeled NAD solution (225 μM NAD, 25 μM 6-Biotin-17-NAD (Travigen, Inc.)) was added and mixed as a donor substrate, and the mixture was reacted at 30° C. for 45 minutes. To blank wells was added distilled water instead of the biotin-labeled NAD solution. After the reaction, the plate was washed with a PBST buffer four times. Thereafter, HRP (horseradish peroxidase)-labeled streptavidin (Travigen, Inc.) was diluted with a PBS buffer by 1,000 times, and added to each well, and the mixture was reacted at room temperature for 20 minutes. The plate was washed with a PBST buffer four times, a chemiluminescent substrate solution TACS-Sapphire (Travigen, Inc.) was then added to each well, the mixture was reacted at room temperature for 20 minutes, and the chemiluminescence intensity was measured using a chemiluminescence measuring apparatus. For Example 84, the streptavidin was diluted by 5,000 times, the chemiluminescent substrate solution TACS-Sapphire was replaced by an ELISA POD substrate TMB solution easy (nacalai tesque), the mixture was reacted at room temperature for 30 minutes, and the chemiluminescence intensity was measured using a chemiluminescence measuring apparatus.
(§3) The residual enzymatic activity in the presence of the test compound was determined from the following expression. On the basis of the residual enzymatic activity at each of multiple concentrations of the test compound, the enzyme inhibitory activity was calculated in terms of a 50%-inhibition concentration (IC50 value) using data analysis software Origin (LightStone Corp.). Residual activity (%)={(chemiluminescence intensity with test compound added)−(chemiluminescence intensity of blank)}/{(chemiluminescence intensity of control)−(chemiluminescence intensity of blank)}
In general terms: In an ELISA, binding on a coated surface is turned into a signal by an enzyme label.

The target in a further assay is T2, tankyrase 2 (TNKS2) (Homo sapiens, UniProt Q9H2K2).
T2 construct: tankyrase 2 (613-1,116aa, ANK5+SAM+PARP); made in house; host or cells: cell-free protein expression system
Description: Tankyrase inhibitory activity test (ELISA, auto-poly(ADP-ribosyl)ation), tankyrase 2. As to conditions: Flag tagged tankyrase 2 (613-1,116aa, ANK5+SAM+PARP); read-out: TNKS2 (inhibitory activity against tankyrase 2, IC50). The format is biochemical. Here is the method: as §1, §2, §3

For assay [1], the system named is human colorectal cancer cell line COLO-320DM. Briefly: Cell proliferation inhibitory activity test (Celltiter-Glo). Type of assay: cell-based. As to conditions: COLO-320DM cells, 96 hours. Here is the method:
The cell proliferation inhibitory activity of the compound, which had been prepared in each of Examples, against the human colorectal cancer cell line COLO-320DM was evaluated by Celltiter-Glo Luminescent Cell Viability Assay (Promega Corporation; G7573). COLO-320DM cells were cultured in RPMI-1640 medium containing 2 mM glutamine (Wako Pure Chemical Industries, Ltd; 189-02025) supplemented with 10% fetal bovine serum. The cultured cells were washed with PBS, and then dissociated with trypsin/EDTA, and a cell solution with 3×10^4 cells/mL was prepared.
Subsequently, the cell solution was seeded in a 96-well microplate (Thermo/Nunc Company; 136101) in an amount of 70 μL per well, and cultured overnight under the condition of 37° C. and 5% CO2. Next day, a test compound solution obtained by diluting the test compound (DMSO solution) with a cell culture medium (final concentration of DMSO was 1%) was added in an amount of 10 μL per well, and the mixture was reacted under the condition of 37° C. and 5% CO2 for 96 hours (a 1% DMSO solution was used as a control). Thereafter, a Celltiter-GloLuminescent Cell Viability Assay reagent (Promega Corporation; G7573) was added in an amount of 80 μL per well, the mixture was stirred with a shaker for 2 minutes while light was blocked with an aluminum foil, and the mixture was incubated at room temperature for 10 minutes.
Thereafter, a luminescence signal was measured with a luminometer (Biotech Company; Synergy). The ratio of cell proliferation in each compound addition group to cell proliferation in a control group containing no test compound solution, where cell proliferation in the control group is 100%, was calculated and the value of a compound concentration necessary for suppressing the amount of residual cells to 50% of that in the control (GI50) was calculated as the cytostatic activity. […] An unevaluated test compound was designated as “NT”.
(In general: Cellular ATP, detected with luciferase, serves as a proxy for viable cell number.)

The structures appear in SMILES notation.

T1 sequence (O95271 1024-1327): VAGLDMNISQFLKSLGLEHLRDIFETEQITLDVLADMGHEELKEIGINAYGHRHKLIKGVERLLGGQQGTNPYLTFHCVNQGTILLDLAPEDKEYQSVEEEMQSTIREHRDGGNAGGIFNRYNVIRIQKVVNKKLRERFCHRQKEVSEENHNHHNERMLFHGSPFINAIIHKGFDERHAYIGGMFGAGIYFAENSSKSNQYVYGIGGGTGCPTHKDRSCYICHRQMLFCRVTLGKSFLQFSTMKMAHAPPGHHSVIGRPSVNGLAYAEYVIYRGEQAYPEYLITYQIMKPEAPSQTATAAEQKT

`COC(=O)c1ccc(-c2n[nH]cc2C2NC(=O)c3ccccc3N2C)cc1` (stereo not drawn) [Example 1, Methyl 4-[4-(1-methyl-4-oxo-2,3-dihydroquinazolin-2-yl)-1H-pyrazol-5-yl]benzoate]: the half-inhibitory concentration (IC50) was in the range of 20 to 50 nM on tankyrase 1 (TNKS1) and 5 to 20 nM at tankyrase 2 (TNKS2).

With `CN1c2ccccc2C(=O)NC1c1c[nH]nc1-c1ccc(C(=O)O)cc1` (stereo not drawn) [Example 2, 4-[4-(1-Methyl-4-oxo-2,3-dihydroquinazolin-2-yl)-1H-pyrazol-5-yl]benzoic Acid], the IC50 at tankyrase 1 (TNKS1) and at tankyrase 2 (TNKS2) was < 5 nM in each case.

Regarding `CN1c2ccccc2C(=O)NC1c1c[nH]nc1-c1ccc(N)cc1` (stereo not drawn) [Example 3, 2-[3-(4-Aminophenyl)-1H-pyrazol-4-yl]-1-methyl-2,3-dihydroquinazolin-4-one], the IC50 on tankyrase 1 (TNKS1) and at tankyrase 2 (TNKS2) was 5 to 20 nM each time. In assay [1], the GI50 was ≥ 10000 nM.

`CN1c2ccccc2C(=O)NC1c1c[nH]nc1-c1ccc(NC(=O)c2ccccc2)cc1` (stereo not drawn) [Example 4, N-[4-[4-(1-Methyl-4-oxo-2,3-dihydroquinazolin-2-yl)-1H-pirazol-3-yl]phenyl]benzamide]: the figures for the IC50 on tankyrase 1 (TNKS1) and at tankyrase 2 (TNKS2) were 5 to 20 nM and < 5 nM, respectively. The GI50 in assay [1] was ≥ 10000 nM.

For `CN1c2ccccc2C(=O)NC1c1c[nH]nc1-c1cccc(NC(=O)Nc2ccccc2)c1` (stereo not drawn) [Example 5, 1-[3-[4-(1-Methyl-4-oxo-2,3-dihydroquinazolin-2-yl)-1H-pyrazol-3-yl]phenyl]-3-phenylurea], the IC50 on tankyrase 1 (TNKS1) and at tankyrase 2 (TNKS2) was 5 to 20 nM each time. In addition, the GI50 in assay [1] is ≥ 10000 nM.

Take `CN1CCN(c2ccc(-c3ccc(-c4n[nH]cc4C4NC(=O)c5ccccc5N4C)cc3)cc2)CC1` (stereo not drawn) [Example 6, 1-Methyl-2-[5-[4-[4-(4-methylpiperazin-1-yl)phenyl]phenyl]-1H-pirazol-4-yl]-2,3-dihydroquinazolin-4-one]: the 50% inhibitory concentration (IC50) at tankyrase 1 (TNKS1) was 20 to 50 nM; at tankyrase 2 (TNKS2), 5 to 20 nM. The 50% growth inhibitory concentration (GI50) in assay [1] fell in the range of 1000 to 10000 nM.

Turning to `CN1c2ccccc2C(=O)NC1c1n[nH]nc1-c1ccc(-c2ccc(N3CCOCC3)cc2)cc1` (stereo not drawn) [Example 7, 1-Methyl-2-[4-[4-(4-morpholin-4-ylphenyl)phenyl]-2H-1,2,3-triazol-5-yl]-2,3-dihydroquinazolin-4-one], the IC50 at tankyrase 1 (TNKS1) is 20 to 50 nM; on tankyrase 2 (TNKS2) it was 5 to 20 nM. In addition, the GI50 in assay [1] is ≥ 10000 nM.

`CCOc1ccc(-c2n[nH]nc2[C@H]2NC(=O)c3cccc(C)c3N2)cc1` [Example 8, (2R)-2-[5-(4-Ethoxyphenyl)-2H-1,2,3-triazol-4-yl]-8-methyl-2,3-dihydro-1H-quinazolin-4-one]: the IC50 at tankyrase 1 (TNKS1) and at tankyrase 2 (TNKS2) was < 5 nM each time. Moreover, the GI50 in assay [1] is < 1000 nM.

On to `O=C1NC(c2c[nH]nc2-c2ccccc2)Nc2ccccc21` (stereo not drawn) [Example 9, 2-(3-Phenyl-1H-pyrazol-4-yl)-2,3-dihydro-1H-quinazolin-4-one], for which the IC50 at tankyrase 1 (TNKS1) and at tankyrase 2 (TNKS2) was 20 to 50 nM throughout.

In the case of `CN1c2ccccc2C(=O)NC1c1c[nH]nc1-c1ccccc1` (stereo not drawn) [Example 10, 1-Methyl-2-(3-phenyl-1H-pyrazol-4-yl)-2,3-dihydroquinazolin-4-one], the half-maximal inhibitory concentration (IC50) is 5 to 20 nM at tankyrase 1 (TNKS1) and < 5 nM at tankyrase 2 (TNKS2). In addition, the GI50 in assay [1] is ≥ 10000 nM.

Take `CN1c2ccccc2C(=O)NC1c1c[nH]nc1-c1ccc(OCc2ccccc2)cc1` (stereo not drawn) [Example 11, 1-Methyl-2-[3-(4-phenylmethoxyphenyl)-1H-pyrazol-4-yl]-2,3-dihydroquinazolin-4-one]: the IC50 was 5 to 20 nM at tankyrase 1 (TNKS1) and < 5 nM on tankyrase 2 (TNKS2). Also, the 50% growth inhibitory concentration (GI50) in assay [1] is ≥ 10000 nM.

As for `CCN1c2ccccc2C(=O)NC1c1c[nH]nc1-c1ccc(OC)cc1` (stereo not drawn) [Example 12, 1-Ethyl-2-[3-(4-methoxyphenyl)-1H-pyrazol-4-yl]-2,3-dihydroquinazolin-4-one], the IC50 on tankyrase 1 (TNKS1) is 20 to 50 nM; at tankyrase 2 (TNKS2), 5 to 20 nM. The GI50 in assay [1] is 1000 to 10000 nM.

The term IC50 denotes the point on the concentration scale where inhibition reaches its midpoint. In general, GI50 refers to the concentration giving 50% growth inhibition.
